From patent publication US11590139B2, “Substituted aminopurine compounds, compositions thereof, and methods of treatment therewith” (Signal Pharmaceuticals, LLC, priority 2014, dated 2023)

tested on: Lox-IMVI melanoma cell line; assay: Lox-IMVI anti-proliferative assay (growth inhibition, Cell Titer-Glo); assay type: cell-based, human; conditions: Homo sapiens; IC50 activity level in the cell-based Lox-IMVI anti-proliferative assay; read-out: Activity
How it was run: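 IC50 values reflect the concentration giving 50% of DMSO-control luminescence after 72 h of treatment, fitted with a four-parameter logistic model. Cells were cultured in RPMI + 10% FBS with compound from 0.5 nM to 10 μM.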

Row | SMILES | IC50 [nM]
1 | NC(=O)[C@H]1CC[C@@H](n2c(Nc3c(F)cc(Cl)cc3F)nc3cnc(NC4CCC4)nc32)CC1 [Example 129, (1s,4s)-4-(8-(4-chloro-2,6-difluorophenylamino)-2-(cyclobutylamino)-9H-purin-9-yl)cyclohexanecarboxamide] | > 1000
2 | NC(=O)[C@H]1CC[C@@H](n2c(Nc3c(F)cc(C(F)(F)F)cc3Cl)nc3cnc(NC4CCOCC4)nc32)CC1 [Example 398, (1s,4s)-4-(8-(2-chloro-6-fluoro-4-(trifluoromethyl)phenylamino)-2-(tetrahydro-2H-pyran-4-ylamino)-9H-purin-9-yl)cyclohexanecarboxamide] | 500 to 1000
3 | NC(=O)[C@H]1CC[C@@H](n2c(Nc3c(Cl)cc(F)cc3Cl)nc3cnc(N[C@@H]4CCC[C@H](O)C4)nc32)CC1 [Example 354, (1S,4s)-4-(8-(2,6-dichloro-4-fluorophenylamino)-2-((1R,3S)-3-hydroxycyclohexylamino)-9H-purin-9-yl)cyclohexanecarboxamide] | 500 to 1000
4 | NC(=O)[C@H]1CC[C@@H](n2c(Nc3c(F)cc(Cl)cc3Cl)nc3cnc(NC4CCC4)nc32)CC1 [Example 130, (1s,4s)-4-(2-(cyclobutylamino)-8-(2,4-dichloro-6-fluorophenylamino)-9H-purin-9-yl)cyclohexanecarboxamide] | > 1000
5 | NC(=O)[C@H]1CC[C@@H](n2c(Nc3c(F)cc(F)cc3F)nc3cnc(N[C@H]4COC[C@@H]4O)nc32)CC1 [Example 311, (1R,4s)-4-(2-((3S,4R)-4-hydroxytetrahydrofuran-3-ylamino)-8-(2,4,6-trifluorophenylamino)-9H-purin-9-yl)cyclohexanecarboxamide] | > 1000

same assay, conditions: Homo sapiens; Lox-IMVI anti-proliferative assay, IC50 activity level; read-out: Activity

Row | SMILES | IC50 [nM]
6 | C[C@]1(C(N)=O)CC[C@@H](n2c(Nc3c(F)cc(F)cc3Cl)nc3cnc(NC4CC(F)(F)C4)nc32)CC1 [Example 579, (1s,4s)-4-(8-(2-chloro-4,6-difluorophenylamino)-2-(3,3-difluorocyclobutylamino)-9H-purin-9-yl)-1-methylcyclohexanecarboxamide] | < 250
7 | NC(=O)[C@H]1CC[C@@H](n2c(Nc3c(Cl)cc(Cl)cc3Cl)nc3cnc(N[C@H]4CCC[C@H](O)C4)nc32)CC1 [Example 461, (1R,4s)-4-(2-((1S,3S)-3-hydroxycyclohexylamino)-8-(2,4,6-trichlorophenylamino)-9H-purin-9-yl)cyclohexanecarboxamide] | > 1000
8 | C[C@@H](CO)Nc1ncc2nc(Nc3c(Cl)cc(C(F)(F)F)cc3Cl)n([C@H]3CC[C@@](C)(C(N)=O)CC3)c2n1 [Example 554, (1R,4s)-4-(8-(2,6-dichloro-4-(trifluoromethyl)phenylamino)-2-((S)-1-hydroxypropan-2-ylamino)-9H-purin-9-yl)-1-methylcyclohexanecarboxamide] | 500 to 1000

same assay, conditions: Homo sapiens; Lox-IMVI melanoma cell line, anti-proliferative assay; read-out: Activity (IC50 activity level)

Row | SMILES | IC50 [nM]
9 | C[C@]1(C(N)=O)CC[C@@H](n2c(Nc3c(F)cc(Cl)cc3Cl)nc3cnc(N[C@H]4CCC[C@H](O)C4)nc32)CC1 [Example 612, (1R,4s)-4-(8-(2,4-dichloro-6-fluorophenylamino)-2-((1S,3S)-3-hydroxycyclohexylamino)-9H-purin-9-yl)-1-methylcyclohexanecarboxamide] | < 250
10 | N#Cc1cc(F)c(Nc2nc3cnc(N[C@H]4CCOC[C@H]4F)nc3n2[C@H]2CC[C@@H](C(N)=O)CC2)c(Cl)c1 [Example 670, (1R,4s)-4-(8-(2-chloro-4-cyano-6-fluorophenylamino)-2-((3S,4S)-3-fluorotetrahydro-2H-pyran-4-ylamino)-9H-purin-9-yl)cyclohexanecarboxamide] | < 250
11 | NC(=O)[C@H]1CC[C@@H](n2c(Nc3c(Cl)cc(Br)cc3Cl)nc3cnc(NC4CCOCC4)nc32)CC1 [Example 690, (1s,4s)-4-(8-(4-bromo-2,6-dichlorophenylamino)-2-(tetrahydro-2H-pyran-4-ylamino)-9H-purin-9-yl)cyclohexanecarboxamide] | < 250
12 | N#Cc1cc(Cl)c(Nc2nc3cnc(NC4CCC(c5ncno5)CC4)nc3n2[C@H]2CC[C@@H](C(N)=O)CC2)c(Cl)c1 (stereo partly shown) [Example 681, (1s,4s)-4-(2-(4-(1,2,4-oxadiazol-5-yl)cyclohexylamino)-8-(2,6-dichloro-4-cyanophenylamino)-9H-purin-9-yl)cyclohexanecarboxamide] | > 1000
13 | N#Cc1cc(F)c(Nc2nc3cnc(N[C@H]4CCC[C@H](O)C4)nc3n2[C@H]2CC[C@@H](C(N)=O)CC2)c(Cl)c1 [Example 689, (1R,4s)-4-(8-(2-chloro-4-cyano-6-fluorophenylamino)-2-((1S,3S)-3-hydroxycyclohexylamino)-9H-purin-9-yl)cyclohexanecarboxamide] | 250 to 500
